Test results: paper PMC11284788, “NN1213 – A Potent, Long-Acting, and Selective Analog of Human Amylin” (Journal of Medicinal Chemistry, 2024)
Numbered stars: 1 amine (or outer) side, 2 acyl side, 3 side chain; on linkers, the order of the positions; unused ones are H or OH. Bridge positions count the residues as written; N and C are the ends. Side chains are listed from the residue outwards. Peptide text beside a SMILES is read from it. * marks the point of attachment. C20 diacid = O=C(O)CCCCCCCCCCCCCCCCCCC(=O)*; γGlu = O=C(O)[C@H](CCC(=O)[*:2])N[*:1]

How the values were obtained:
[1] = target: T1, rat AMY3R (Rattus norvegicus, UniProt P32214+Q9JJ73); experiment: cAMP FlashPlate assay, rat AMY3R; type: cell-based; settings: ratio of cAMP EC50 values
T1 construct: expressed in transfected cells; host or cells: BHK tk-ts 13, transient co-transfection (FuGENE 6)
T1 sequence (P32214 25-479 isoform P32214-2 limits assumed): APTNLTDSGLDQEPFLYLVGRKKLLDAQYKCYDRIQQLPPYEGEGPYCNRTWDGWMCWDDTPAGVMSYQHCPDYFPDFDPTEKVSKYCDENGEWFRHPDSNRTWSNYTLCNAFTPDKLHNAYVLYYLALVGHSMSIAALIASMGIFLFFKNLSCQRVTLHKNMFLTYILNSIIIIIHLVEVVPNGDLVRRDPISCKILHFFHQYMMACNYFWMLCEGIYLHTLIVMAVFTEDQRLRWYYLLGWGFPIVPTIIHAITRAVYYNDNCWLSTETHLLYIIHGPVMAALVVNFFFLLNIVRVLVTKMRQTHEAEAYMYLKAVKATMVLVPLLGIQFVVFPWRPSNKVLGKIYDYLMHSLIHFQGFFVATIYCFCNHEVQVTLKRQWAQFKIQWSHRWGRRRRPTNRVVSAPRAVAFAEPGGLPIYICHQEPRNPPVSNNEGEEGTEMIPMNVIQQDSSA
T1 sequence (Q9JJ73 23-147 partner): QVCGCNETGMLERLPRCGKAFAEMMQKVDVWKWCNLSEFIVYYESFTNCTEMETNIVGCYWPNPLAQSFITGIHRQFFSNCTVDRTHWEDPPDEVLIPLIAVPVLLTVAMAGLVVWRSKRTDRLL

[2] = target: T2, hAMY3R (Homo sapiens, UniProt O60896+P30988); experiment: scintillation proximity binding assay, hAMY3R membranes; set-up: expressed in transfected cells; host or cells: BHK tk-ts 13, transient co-transfection; membranes for the SPA, whole cells for the species-specific assays; settings: ratio of binding IC50 values
T2 sequence (P30988 25-474): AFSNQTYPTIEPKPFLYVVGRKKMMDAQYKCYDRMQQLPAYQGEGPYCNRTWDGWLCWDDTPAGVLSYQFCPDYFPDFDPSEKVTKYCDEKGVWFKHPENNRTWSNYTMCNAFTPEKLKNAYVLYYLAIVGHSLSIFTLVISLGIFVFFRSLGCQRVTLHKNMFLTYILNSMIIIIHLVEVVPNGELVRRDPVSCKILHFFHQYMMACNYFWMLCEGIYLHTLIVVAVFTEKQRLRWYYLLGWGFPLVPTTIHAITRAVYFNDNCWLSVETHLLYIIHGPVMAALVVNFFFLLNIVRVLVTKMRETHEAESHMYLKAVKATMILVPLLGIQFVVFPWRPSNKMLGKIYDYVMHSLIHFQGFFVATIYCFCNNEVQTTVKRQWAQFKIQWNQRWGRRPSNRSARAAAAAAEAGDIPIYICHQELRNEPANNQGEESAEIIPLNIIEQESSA
T2 sequence (O60896 24-148 partner): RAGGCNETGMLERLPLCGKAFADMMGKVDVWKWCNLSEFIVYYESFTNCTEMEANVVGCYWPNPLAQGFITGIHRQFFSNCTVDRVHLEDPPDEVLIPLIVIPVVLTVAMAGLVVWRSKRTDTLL
Protocol: The apparent binding affinities were determined using a scintillation proximity assay with beads from PerkinElmer and cell membranes containing the AMY3R or CTRs. […] Membranes were harvested and membranes were prepared and kept at −80 °C until use. The assay was performed in a 384-well Optiplate (PerkinElmer). Membranes were mixed with scintillation proximity assay beads in a 1:1 ratio. […] Samples were analyzed on a TopCounter (Packard). The IC50 values were calculated using GraphPad Prism. See Supporting Information S7: SAR Screening Assay Methods (Binding Assays (Human and Rat)) for more information.
Binding Assays (Human and Rat). Brief descriptions of the methods used to determine binding affinities for SAR analysis are described below. Curves and IC50 values were plotted and calculated in GraphPad Prism using nonlinear regression (one site binding competition analysis), with pIC50 values […]
values were used to calculate the binding affinity ratios in order to express the selectivity of compounds for the AMY3R versus the CTR.
CTR Binding Assay. The binding assay was performed using scintillation proximity assay (SPA) beads (RPNQ0001) from PerkinElmer and cell membranes containing either the hCTR or rCTR. BHK […]
Membranes were prepared in the following way: the cells were rinsed with PBS and incubated with Versene for approximately 5 min before harvesting. The cells were flushed with PBS and the cell-suspension was centrifuged for 5 min at 1000 rpm. Cells were homogenized (Ultra Turrax) in a buffer […]
containing 20 mM Na-HEPES and 0.1 mM EDTA (pH 7.4, buffer 2). The resulting pellet was re-suspended in buffer 2 and protein concentration was measured (BCA protein assay, Pierce). The homogenate was kept cold during the whole procedure. The membranes were stored at –80 °C until […]
The binding assay was performed in a 384-well Optiplate (PerkinElmer) in a total volume of 40 μL.
Membranes were mixed with SPA beads in a 1:1 ratio. […]
mg/well. Test compounds were dissolved in DMSO and further diluted in assay buffer (50 mM HEPES, pH 7.4, 1 mM CaCl2, 5 mM MgCl2, 0.1% ovalbumin, and 0.02% Tween-20).
Calcitonin (NEX422 PerkinElmer) was dissolved in assay buffer and added to the Optiplate at a final […]
prior to centrifugation (1500 rpm, 10 min). Samples were analyzed on TopCounter (Packard).
AMY3R Binding Assay. The binding assay was performed using SPA beads (RPNQ0001) from PerkinElmer and cell membranes containing either the hAMY3R or rAMY3R. BHK tk-ts 13 cells were […]
and cultured as described above. Membranes were prepared in the following way: the cells were rinsed with PBS and incubated with Versene for approximately 5 min before harvesting. The cells were flushed with PBS and the cell-suspension was centrifuged for 5 min at 1000 rpm. Cells were homogenized (Ultra Turrax) in a buffer containing 20 mM Na-HEPES and 10 mM EDTA (pH 7.4), and […]
The resulting pellet was re-suspended, homogenized, and
7.4, buffer 2). The resulting pellet was re-suspended in buffer 2 and protein concentration was measured (BCA protein assay, Pierce). The homogenate was kept cold during the whole procedure.
The membranes were stored at –80 °C until use.
Membranes were mixed with SPA beads in a 1:1 ratio. The final concentration of SPA beads was 0.05 mg/well. Test compounds were dissolved in DMSO and further diluted in assay buffer (50 mM […]
rAMY (NEX448 PerkinElmer) was dissolved in assay buffer and added to the Optiplate at a final

SMILES	ratio rCTR/rAMY3R [1]	ratio hCTR/hAMY3R [2]
CC[C@H](C)[C@H](NC(=O)[C@H](C)NC(=O)CNC(=O)[C@H](Cc1ccccc1)NC(=O)[C@H](CC(N)=O)NC(=O)[C@@H]1CCCN1C(=O)[C@H](CO)NC(=O)[C@H](CO)NC(=O)[C@H](Cc1c[nH]cn1)NC(=O)[C@H](CCCNC(=N)N)NC(=O)[C@H](CC(C)C)NC(=O)[C@H](Cc1ccccc1)NC(=O)[C@H](CC(=O)O)NC(=O)[C@H](C)NC(=O)[C@H](CC(C)C)NC(=O)[C@H](CCCNC(=N)N)NC(=O)[C@H](CCC(N)=O)NC(=O)[C@@H](NC(=O)[C@H](C)NC(=O)[C@@H]1CSSC[C@H](NC(=O)[C@@H](N)CCCCNC(=O)CC[C@H](NC(=O)CC[C@H](NC(=O)CCCCCCCCCCCCCCCCCCC(=O)O)C(=O)O)C(=O)O)C(=O)N[C@@H](CC(N)=O)C(=O)N[C@@H]([C@@H](C)O)C(=O)N[C@@H](C)C(=O)N[C@@H]([C@@H](C)O)C(=O)N1)[C@@H](C)O)C(=O)N1CCC[C@H]1C(=O)N[C@@H](CO)C(=O)N[C@@H](CO)C(=O)N[C@H](C(=O)N[C@@H](CC(N)=O)C(=O)N[C@H](C(=O)NCC(=O)N[C@@H](CO)C(=O)N[C@@H](CC(=O)O)C(=O)N[C@H](C(=O)N[C@@H](Cc1ccc(O)cc1)C(N)=O)[C@@H](C)O)C(C)C)[C@@H](C)O [Peptide 6] (H-K([γGlu-γGlu-C20 diacid])CNTATCATQRLADFLRHSSPNFGAIPSSTNVGSDTY-NH2; disulfide 2-7)	1338	55
CC[C@H](C)[C@H](NC(=O)[C@H](C)NC(=O)CNC(=O)[C@H](Cc1ccccc1)NC(=O)[C@H](CC(N)=O)NC(=O)[C@@H]1CCCN1C(=O)[C@H](CO)NC(=O)[C@H](CO)NC(=O)[C@H](Cc1c[nH]cn1)NC(=O)[C@H](CCCNC(=N)N)NC(=O)[C@H](CC(C)C)NC(=O)[C@H](Cc1ccccc1)NC(=O)[C@H](CC(=O)O)NC(=O)[C@H](C)NC(=O)[C@H](CC(C)C)NC(=O)[C@H](CCCNC(=N)N)NC(=O)[C@H](CCC(N)=O)NC(=O)[C@@H](NC(=O)[C@H](C)NC(=O)[C@@H]1CSSC[C@H](NC(=O)[C@@H](N)CCCCNC(=O)CC[C@H](NC(=O)CC[C@H](NC(=O)CCCCCCCCCCCCCCCCCCC(=O)O)C(=O)O)C(=O)O)C(=O)N[C@@H](CC(N)=O)C(=O)N[C@@H]([C@@H](C)O)C(=O)N[C@@H](C)C(=O)N[C@@H]([C@@H](C)O)C(=O)N1)[C@@H](C)O)C(=O)N1CCC[C@H]1C(=O)N[C@@H](CO)C(=O)N[C@@H](CO)C(=O)N[C@H](C(=O)N[C@@H](CC(N)=O)C(=O)N[C@H](C(=O)NCC(=O)N[C@@H](CO)C(=O)N[C@@H](CCCNC(=N)N)C(=O)N[C@H](C(=O)N[C@@H](Cc1ccc(O)cc1)C(N)=O)[C@@H](C)O)C(C)C)[C@@H](C)O [NN1213]	391	74
